{"source": "patent US9340520B2", "about": "“Hepatitis C virus inhibitors” (Bristol-Myers Squibb Company, priority 2011, dated 2016)", "key": {"[1]": {"system": "genotype-1a YH single resistant mutant", "experiment": "HCV replicon assay, genotype-1a YH single resistant mutant", "assay_type": "cell-based", "details": "Hepatitis C virus, read-out: EC50 G 1a YH", "description": "(§1) An HCV Replicon assay was utilized in the present disclosure, and was prepared, conducted and validated as described in commonly owned PCT/US2006/022197 and in O'Boyle et. al. Antimicrob Agents Chemother. 2005 April; 49(4):1346-53. Recommended assay methods incorporating luciferase reporters have also been used as described from commercial sources (Apath.com).\n(§2) HCV-neo replicon cells and replicon cells containing resistance substitutions in the NS5A region were used to test the currently described family of compounds. The compounds were determined to have differing degrees of reduced inhibitory activity on cells containing mutations vs. the corresponding inhibitory potency against wild-type cells. Thus, the compounds of the present disclosure can be effective in inhibiting the function of the HCV NS5A protein and are understood to be as effective in combinations as previously described in application PCT/US2006/022197 and commonly owned WO/04014852. It should be understood that the compounds of the present disclosure can inhibit multiple genotypes of HCV."}, "[2]": {"system": "HCV genotype 1b LV/YH double resistant mutant", "experiment": "HCV replicon assay, genotype 1b LV/YH double resistant mutant", "assay_type": "cell-based", "details": "Hepatitis C virus, read-out: EC50 G 1b LV/YH", "description": "as §1, §2"}, "[3]": {"experiment": "Cytotoxicity (CC50) in G 1a replicon cells", "assay_type": "cell-based", "details": "HCV G 1a replicon cells", "description": "as §1"}, "[4]": {"experiment": "IV and PO single dose pharmacokinetic studies in rat", "assay_type": "in vivo", "details": "male Sprague-Dawley rats, plasma; for AUC: oral gavage 5 mg/kg, 24 h, read-out: 24 h rat PK (Auc); for bioavailability: oral gavage 5 mg/kg vs IV infusion 2 mg/kg, read-out: 24 h rat PK (oral bioavailability)", "description": "The pharmacokinetics of Examples 1 to 6 and Compound-A (WO2008/021927) were characterized in male Sprague-Dawley rats (260-310 g) (see Table 2). In these studies, two groups of animals (N=3 per group) received compound either as an intravenous (IV) infusion (2 mg/kg over 10 minutes) via the jugular vein or by oral gavage (5 mg/kg) in a vehicle of 100% PEG 400 or 90:5:5 PEG 400:ethanol:TPGS, respectively. The rats in the oral dosing group were fasted overnight. Serial blood samples were obtained at 0.17 (IV only), 0.25, 0.5, 0.75, 1, 2, 4, 6, 8, and 24 h post dose. Blood samples (˜0.3 mL) were collected from the jugular vein into K3EDTA-containing tubes and then centrifuged at 4° C. (1500-2000×g) to obtain plasma. Plasma samples were stored at −20° C. until analysis by LC/MS/MS.\nA bioanalytical method utilizing liquid chromatography separation followed by tandem mass spectrometry detection (LC/MS/MS) was developed for the compound analysis in rat plasma. Detection was performed using selected reaction monitoring. Ions representing the precursor (M+H)^+ species were selected in quadrupole 1 and collisionally dissociated with N2 to generate specific product ions, which were subsequently monitored by quadrupole 3. Standard curves were prepared in male rat plasma and processed in the same manner as test samples to generate quantitative data.\nPharmacokinetic parameter values were calculated using noncompartmental methods by Kinetica. Values below the lower limit of quantification (LLOQ) were not used in calculations. Area under the curve (AUC) was calculated using the linear trapezoidal rule."}, "HCV genotype 1a": {"system": "HCV genotype 1a", "experiment": "HCV replicon assay, genotype 1a", "assay_type": "cell-based", "details": "Hepatitis C virus; HCV replicon cells, genotype 1a wild type; read-out: EC50 G 1a wild type", "description": "as §1, §2"}, "[5]": {"system": "HCV genotype 1b wild type", "experiment": "HCV replicon assay, genotype 1b wild type", "assay_type": "cell-based", "details": "Hepatitis C virus, HCV replicon cells, read-out: EC50 G 1b wild type", "description": "as §1, §2"}}, "note": "pEC50: −log10 of the molar value."}
{"smiles": "COC(=O)N[C@H](C(=O)N1CCC[C@H]1c1nc(-c2ccc(-c3ccc(-c4c[nH]c([C@@H]5CCCN5C(=O)[C@@H](NC(=O)OC)C5CCOCC5)n4)cc3)cc2)c[nH]1)C1CCOCC1", "note": "[Compound-A, reference compound]", "values": [{"measurement": "pEC50", "setting": "[1]", "result": 7.89}, {"measurement": "pEC50", "setting": "[2]", "result": 7.70}, {"measurement": "CC50", "setting": "[3]", "result": 63900, "unit": "nM"}, {"measurement": "AUC", "setting": "[4]", "result": 0.103, "unit": "µM·h"}, {"measurement": "bioavailability", "setting": "[4]", "result": 1.3, "unit": "%"}, {"measurement": "pEC50", "setting": "HCV genotype 1a", "result": 10.29}, {"measurement": "pEC50", "setting": "[5]", "result": 9.92}]}
{"smiles": "COC(=O)N[C@H](C(=O)N1[C@@H](C)CC[C@H]1c1nc(-c2ccc(-c3ccc(-c4c[nH]c([C@@H]5CC[C@H](C)N5C(=O)[C@@H](NC(=O)OC)[C@H]5C[C@@H](C)O[C@@H](C)C5)n4)cc3)cc2)c[nH]1)[C@@H]1C[C@@H](C)O[C@@H](C)C1", "note": "[Example-1]", "values": [{"measurement": "pEC50", "setting": "[1]", "result": 9.01}, {"measurement": "pEC50", "setting": "[2]", "result": 8.50}, {"measurement": "CC50", "setting": "[3]", "result": 8460, "unit": "nM"}, {"measurement": "AUC", "setting": "[4]", "result": 1.6, "unit": "µM·h"}, {"measurement": "bioavailability", "setting": "[4]", "result": 15, "unit": "%"}, {"measurement": "pEC50", "setting": "HCV genotype 1a", "result": 11.26}, {"measurement": "pEC50", "setting": "[5]", "result": 11.40}]}
{"smiles": "COC(=O)N[C@H](C(=O)N1[C@@H](C)CC[C@H]1c1nc(-c2ccc(-c3ccc(-c4c[nH]c([C@@H]5CC[C@H](C)N5C(=O)[C@@H](NC(=O)OC)C5C[C@@H](C)O[C@H](C)C5)n4)cc3)cc2)c[nH]1)C1C[C@@H](C)O[C@H](C)C1", "note": "(stereo partly drawn) [Example-2, Dimethyl(4,4′-biphenyldiylbis(1H-imidazole-4,2-diyl((2S,5S)-5-methyl-2,1-pyrrolidinediyl)((1S)-1-((2R,6R)-2,6-dimethyltetrahydro-2H-pyran-4-yl)-2-oxo-2,1-ethanediyl)))biscarbamate]", "values": [{"measurement": "pEC50", "setting": "[1]", "result": 9.80}, {"measurement": "pEC50", "setting": "[2]", "result": 9.94}, {"measurement": "CC50", "setting": "[3]", "result": 5890, "unit": "nM"}, {"measurement": "AUC", "setting": "[4]", "result": 2.22, "unit": "µM·h"}, {"measurement": "bioavailability", "setting": "[4]", "result": 12, "unit": "%"}, {"measurement": "pEC50", "setting": "HCV genotype 1a", "result": 11.19}, {"measurement": "pEC50", "setting": "[5]", "result": 11.10}]}
{"smiles": "COC(=O)N[C@H](C(=O)N1[C@@H](C)CC[C@H]1c1nc(-c2ccc(-c3ccc(-c4c[nH]c([C@@H]5CC[C@H](C)N5C(=O)[C@@H](NC(=O)OC)C5C[C@@H](C)O[C@H](C)C5)n4)c(C)c3)cc2)c[nH]1)C1C[C@@H](C)O[C@H](C)C1", "note": "(stereo partly shown) [Example-3]", "values": [{"measurement": "pEC50", "setting": "[1]", "result": 8.97}, {"measurement": "pEC50", "setting": "[2]", "result": 9.72}, {"measurement": "CC50", "setting": "[3]", "result": 6150, "unit": "nM"}, {"measurement": "AUC", "setting": "[4]", "result": 4.49, "unit": "µM·h"}, {"measurement": "bioavailability", "setting": "[4]", "result": 17, "unit": "%"}, {"measurement": "pEC50", "setting": "HCV genotype 1a", "result": 11.28}, {"measurement": "pEC50", "setting": "[5]", "result": 11.19}]}
{"smiles": "COC(=O)N[C@H](C(=O)N1[C@@H](C)CC[C@H]1c1nc(-c2ccc(-c3ccc(-c4c[nH]c([C@@H]5CC[C@H](C)N5C(=O)[C@@H](NC(=O)OC)C5C[C@@H](C)O[C@H](C)C5)n4)c(F)c3)cc2)c[nH]1)C1C[C@@H](C)O[C@H](C)C1", "note": "(stereo partly shown) [Example-4]", "values": [{"measurement": "pEC50", "setting": "[1]", "result": 9.40}, {"measurement": "pEC50", "setting": "[2]", "result": 9.36}, {"measurement": "CC50", "setting": "[3]", "result": 7750, "unit": "nM"}, {"measurement": "AUC", "setting": "[4]", "result": 1.73, "unit": "µM·h"}, {"measurement": "bioavailability", "setting": "[4]", "result": 16, "unit": "%"}, {"measurement": "pEC50", "setting": "HCV genotype 1a", "result": 11.23}, {"measurement": "pEC50", "setting": "[5]", "result": 11.38}]}
{"smiles": "COC(=O)N[C@H](C(=O)N1[C@H](c2nc(-c3ccc(-c4ccc(-c5c[nH]c([C@@H]6C[C@@]7(C)C[C@H]7N6C(=O)[C@@H](NC(=O)OC)C6C[C@@H](C)O[C@H](C)C6)n5)cc4)cc3)c[nH]2)C[C@@]2(C)C[C@@H]12)C1C[C@@H](C)O[C@H](C)C1", "note": "(stereo partly shown) [Example-5]", "values": [{"measurement": "pEC50", "setting": "[1]", "result": 10.22}, {"measurement": "pEC50", "setting": "[2]", "result": 11.01}, {"measurement": "CC50", "setting": "[3]", "result": 5340, "unit": "nM"}, {"measurement": "AUC", "setting": "[4]", "result": 0.539, "unit": "µM·h"}, {"measurement": "bioavailability", "setting": "[4]", "result": 6.3, "unit": "%"}, {"measurement": "pEC50", "setting": "HCV genotype 1a", "result": 11.43}, {"measurement": "pEC50", "setting": "[5]", "result": 11.16}]}
{"smiles": "COC(=O)N[C@H](C(=O)N1CCC[C@H]1c1nc(-c2ccc(-c3ccc(-c4c[nH]c([C@@H]5CCCN5C(=O)[C@@H](NC(=O)OC)C5C[C@@H](C)O[C@H](C)C5)n4)cc3)cc2)c[nH]1)C1C[C@@H](C)O[C@H](C)C1", "note": "(stereo partly shown) [Example-6]", "values": [{"measurement": "pEC50", "setting": "[1]", "result": 9.42}, {"measurement": "pEC50", "setting": "[2]", "result": 9.18}, {"measurement": "CC50", "setting": "[3]", "result": 15400, "unit": "nM"}, {"measurement": "AUC", "setting": "[4]", "result": 1.36, "unit": "µM·h"}, {"measurement": "bioavailability", "setting": "[4]", "result": 5, "unit": "%"}, {"measurement": "pEC50", "setting": "HCV genotype 1a", "result": 10.79}, {"measurement": "pEC50", "setting": "[5]", "result": 10.44}]}
